Laboratory results published in patent US20250062039A1, “ESTIMATION OF PHARMACOKINETIC (PK) PARAMETERS OF DRUG CANDIDATES USING UNIVERSAL PK PARAMETERS BOUNDS” (Tata Consultancy Services Limited, priority 2023, published 2025).
Where two headings read alike, the source gives them in different places.

Legend:
[1] = IV infusion 10 mg; cited from earlier work
[2] = clinical; settings: human, in vivo, iv
[3] = 2 compartment model, cited from earlier work
[4] = clinical; settings: human, in vivo, iv; for half-life: Selected Parameter Value
[5] = in vivo, iv, 20 mg/kg
[6] = in vivo; settings: non-human primates, iv, 20 mg/kg
[7] = Three compartment PK model parameter estimation from etomidate PCT profile (64 bound combinations, MWDO + Nelder Mead); parameters: species or system humans
[8] = cited from earlier work; for Conc (plasma concentration): 18.3 mg intravenously, subject 60.9 kg
[9] = IV Infusion, 4 mg for 5 minutes
[10] = MWDO, Upper Bound 1 of Table 18
[11] = MWDO, Upper Bound 2 of Table 18
[12] = MWDO, Upper Bound 3 of Table 18
[13] = Nelder Mead, bound combination 1
[14] = Nelder Mead, bound combination 2
[15] = Nelder Mead, bound combination 3
[16] = best set over all 64 bound combinations

For `CC(C)NCC(O)COc1ccc(CCOCC2CC2)cc1` (stereo not drawn) [Betaxolol], the “AUC, Mean Value” [1] is given as 610 ng·h/mL, the “CL, Mean Value” [1] is given as 15.1 L/h and the “Lambda_Z, Mean Value” [1] is given as 0.0415 h⁻¹. The “Vz, Mean Value” [1] was 5.07 L/kg, the Vd [2] was 5.81 L/kg and the clearance [2] was 300 mL/min.
For `OC(CCN1CCCCC1)(c1ccccc1)C1CC2C=CC1C2` (stereo not drawn) [Biperiden], the “AUC, Value” [3, 9] is given as 62.8 ng·h/mL, the “CL, Value” [3, 9] is given as 24 mL/min/kg and the “K12, Value” [3, 9] is given as 0.1910 h⁻¹. The “K21, Value” [3, 9] was 0.06 h⁻¹, the “T1/2 Alpha, Value” [3, 9] was 1.5 h and the “T1/2 beta, Value” [3, 9] was 24.3 h. The “V1, Value” [3, 9] was 2.6 L/kg, the “Ka, Value” ([3]; Oral 4 mg) was 2.18 h⁻¹ and the clearance [4] was 24.8 mL/min/kg. It also gave a half-life ([4]; T1/2 Alpha) of 1.7 h and a half-life ([4]; T1/2 beta) of 28.2 h.
In the case of `COc1cc(NCc2ccc3nc(N)nc(N)c3c2C)cc(OC)c1OC` [Trimetrexate], the “K10, Converted value” ([5]; non-human primate) is reported as 3.096 h⁻¹, the “K10, Selected Parameter Value” ([5]; non-human primate) is reported as 0.0516 min⁻¹ and the “K12, Converted value” ([5]; non-human primates) is reported as 0.87 h⁻¹. For the same compound, the “K12, Selected Parameter Value” ([5]; non-human primates) was 0.0145 min⁻¹, the “K13, Converted value” ([5]; non-human primates) was 0.0075 h⁻¹ and the “K13, Selected Parameter Value” ([5]; non-human primates) was 0.000125 min⁻¹. For the same compound, the “K21, Converted value” ([5]; non-human primates) was 1.296 h⁻¹, the “K21, Selected Parameter Value” ([5]; non-human primates) was 0.0216 min⁻¹ and the “K31, Converted value” ([5]; non-human primates) was 0.093 h⁻¹. For the same compound, the “K31, Selected Parameter Value” ([5]; non-human primates) was 0.00155 min⁻¹, the “V1, Converted value” ([5]; non-human primates) was 0.15 L/kg and the “V1, Selected Parameter Value” ([5]; non-human primates) was 0.15 L/kg. The “V2, Converted value” ([5]; non-human primates) was 0.079 L/kg, the “V2, Selected Parameter Value” ([5]; non-human primates) was 0.079 L/kg and the “cl, Converted value” ([5]; non-human primates) was 0.252 L/h. For the same compound, the clearance [6] was 4.2 mL/min, the half-life ([6]; T1/2 alpha, Converted value) was 0.305 h and the half-life ([6]; T1/2 alpha, Selected Parameter Value) was 0.305 h. It also gave a half-life ([6]; T1/2 beta, Converted value) of 1.43 h and a half-life ([6]; T1/2 beta, Selected Parameter Value) of 1.43 h.
With `CCOC(=O)c1cncn1[C@H](C)c1ccccc1` [etomidate] the “A, Globally optimized Parameter 1” value [7, 10] was 0.2958 µg/mL, the “Alpha, Globally optimized Parameter 1” value [7, 10] was 12.67 h⁻¹ and the “B, Globally optimized Parameter 1” value [7, 10] was 0.1079 µg/mL. For the same compound, the “Beta, Globally optimized Parameter 1” value [7, 10] was 1.124 h⁻¹, the “C, Globally optimized Parameter 1” value [7, 10] was 0.02617 µg/mL and the “Gamma, Globally optimized Parameter 1” value [7, 10] was 0.1092 h⁻¹. The “A, Globally optimized Parameter 2” value [7, 11] was 0.2529 µg/mL, the “Alpha, Globally optimized Parameter 2” value [7, 11] was 10.44 h⁻¹ and the “B, Globally optimized Parameter 2” value [7, 11] was 0.1149 µg/mL. For the same compound, the “Beta, Globally optimized Parameter 2” value [7, 11] was 0.351 h⁻¹, the “C, Globally optimized Parameter 2” value [7, 11] was 0.005408 µg/mL and the “Gamma, Globally optimized Parameter 2” value [7, 11] was 0.1074 h⁻¹. For the same compound, the “A, Globally optimized Parameter 3” value [7, 12] was 0.13 µg/mL, the “Alpha, Globally optimized Parameter 3” value [7, 12] was 5.539 h⁻¹ and the “B, Globally optimized Parameter 3” value [7, 12] was 0.1089 µg/mL. For the same compound, the “Beta, Globally optimized Parameter 3” value [7, 12] was 0.3627 h⁻¹, the “C, Globally optimized Parameter 3” value [7, 12] was 0.005084 µg/mL and the “Gamma, Globally optimized Parameter 3” value [7, 12] was 0.0375 h⁻¹. The “A, Locally Optimized parameter 1” value [7, 13] was 0.3151 µg/mL, the “Alpha, Locally Optimized parameter 1” value [7, 13] was 11.49 h⁻¹ and the “B, Locally Optimized parameter 1” value [7, 13] was 0.1076 µg/mL. The “Beta, Locally Optimized parameter 1” value [7, 13] was 0.8111 h⁻¹, the “C, Locally Optimized parameter 1” value [7, 13] was 0.01292 µg/mL and the “Gamma, Locally Optimized parameter 1” value [7, 13] was 0.03486 h⁻¹. For the same compound, the “A, Locally Optimized parameter 2” value [7, 14] was 0.3151 µg/mL, the “Alpha, Locally Optimized parameter 2” value [7, 14] was 11.49 h⁻¹ and the “B, Locally Optimized parameter 2” value [7, 14] was 0.1076 µg/mL. The “Beta, Locally Optimized parameter 2” value [7, 14] was 0.8111 h⁻¹, the “C, Locally Optimized parameter 2” value [7, 14] was 0.01292 µg/mL and the “Gamma, Locally Optimized parameter 2” value [7, 14] was 0.03486 h⁻¹. The “A, Locally Optimized parameter 3” value [7, 15] was 0.3151 µg/mL, the “Alpha, Locally Optimized parameter 3” value [7, 15] was 11.49 h⁻¹ and the “B, Locally Optimized parameter 3” value [7, 15] was 0.1076 µg/mL. For the same compound, the “Beta, Locally Optimized parameter 3” value [7, 15] was 0.8111 h⁻¹, the “C, Locally Optimized parameter 3” value [7, 15] was 0.01292 µg/mL and the “Gamma, Locally Optimized parameter 3” value [7, 15] was 0.03486 h⁻¹. For the same compound, the “A, Best Parameter/Best locally optimized value” [7, 16] was 0.3151 µg/mL, the “A, Initial value/globally optimized value” [7, 16] was 0.2703 µg/mL and the “Alpha, Best Parameter/Best locally optimized value” [7, 16] was 11.49 h⁻¹. The “Alpha, Initial value/globally optimized value” [7, 16] was 7.1437 h⁻¹, the “B, Best Parameter/Best locally optimized value” [7, 16] was 0.1076 µg/mL and the “B, Initial value/globally optimized value” [7, 16] was 0.07389 µg/mL. For the same compound, the “Beta, Best Parameter/Best locally optimized value” [7, 16] was 0.8111 h⁻¹, the “Beta, Initial value/globally optimized value” [7, 16] was 0.3665 h⁻¹ and the “C, Best Parameter/Best locally optimized value” [7, 16] was 0.01292 µg/mL. The “C, Initial value/globally optimized value” [7, 16] was 0.01092 µg/mL, the “Gamma, Best Parameter/Best locally optimized value” [7, 16] was 0.03486 h⁻¹ and the “Gamma, Initial value/globally optimized value” [7, 16] was 0.1479 h⁻¹. The “Conc (plasma concentration)” value ([8]; Time 0.067 hr) was 260 ng/mL, the “Conc (plasma concentration)” value ([8]; Time 0.133 hr) was 180 ng/mL and the “Conc (plasma concentration)” value ([8]; Time 0.25 hr) was 115 ng/mL. The “Conc (plasma concentration)” value ([8]; Time 0.5 hr) was 88 ng/mL, the “Conc (plasma concentration)” value ([8]; Time 1 hr) was 59.9 ng/mL and the “Conc (plasma concentration)” value ([8]; Time 2 hr) was 32.5 ng/mL. For the same compound, the “Conc (plasma concentration)” value ([8]; Time 3 hr) was 21.3 ng/mL, the “Conc (plasma concentration)” value ([8]; Time 4 hr) was 15.8 ng/mL and the “Conc (plasma concentration)” value ([8]; Time 5 hr) was 12.6 ng/mL. The “Conc (plasma concentration)” value ([8]; Time 6 hr) was 11.4 ng/mL, the “Conc (plasma concentration)” value ([8]; Time 7 hr) was 10.5 ng/mL and the “Conc (plasma concentration)” value ([8]; Time 8 hr) was 9.9 ng/mL. For the same compound, the “Conc (plasma concentration)” value ([8]; Time 9 hr) was 9.5 ng/mL, the “Conc (plasma concentration)” value ([8]; Time 10 hr) was 9.1 ng/mL and the “A, Published parameter value” ([8]; three compartment model) was 0.297 µg/mL. For the same compound, the “Alpha, Published parameter value” ([8]; three compartment model) was 12.02 h⁻¹, the “B, Published parameter value” ([8]; three compartment model) was 0.117 µg/mL and the “Beta, Published parameter value” ([8]; three compartment model) was 0.935 h⁻¹. The “C, Published parameter value” ([8]; three compartment model) was 0.017 µg/mL and the “Gamma, Published parameter value” ([8]; three compartment model) was 0.064 h⁻¹.
